Reference: PubChem BioAssay (NCI)
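Five compound concentrations were applied to cells in 96-well plates for 48 hours; endpoints were derived by simple linear interpolation of the resulting dose-response curve. Abbreviation: GI50, concentration required for 50% inhibition of growth. At the TGI there is no net growth.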 Peptide text beside a SMILES is read from it. * marks the point of attachment. OSu = O=C1CCC(=O)N1O*; OBn = c1ccc(CO*)cc1; Bn = c1ccc(C*)cc1

Experiments:
Assay in all cases: DTP human tumour cell line panel, 48 h
[1] = test system: CCRF-CEM leukemia
[2] = test system: HCT-116 colon
[3] = test system: HL-60(TB) leukemia
[4] = test system: NCI-H226 lung
[5] = test system: NCI-H460 lung
[6] = test system: NCI-H522 lung
[7] = test system: SK-MEL-28 melanoma
[8] = test system: SN12C renal
[9] = test system: SNB-19 CNS
[10] = test system: A498 renal

Compound	TGI [1] [µM]	TGI [2] [µM]	TGI [3] [µM]	TGI [4] [µM]	TGI [5] [µM]	TGI [6] [µM]	TGI [7] [µM]	TGI [8] [µM]	TGI [9] [µM]	GI50 [10] [µM]	TGI [10] [µM]	GI50 [6] [µM]	GI50 [7] [µM]	GI50 [8] [µM]
Cc1csc2n(C)c(=O)c3ccccc3[n+]12	> 100	> 100	> 100	> 100	> 100	> 100	> 100	> 100	> 100	–	–	–	–	–
CCOC(=O)/C=C1/Nc2cc(F)c(F)cc2NC1=O	> 100	> 100	> 100	> 100	> 100	–	> 100	> 100	> 100	–	–	–	–	–
CCCCNCC(O)c1cc(-c2ccc(C(F)(F)F)cc2)nc(-c2ccc(C(F)(F)F)cc2)c1 (centres undefined)	–	–	–	–	–	3.53	3.81	3.55	–	1.38	2.86	1.8	2.08	1.9
CCOC(=O)CCC(NC(=O)c1ccc(NCc2ccc3nc(-c4ccccc4)c(Cl)nc3c2)c2ccccc12)C(=O)OCC (centres undefined)	–	> 100	–	> 100	> 100	> 100	> 100	> 100	> 100	–	> 100	–	–	–
OCCNc1nc2c(N3CCCC3)nc(N3CCNCC3)nc2nc1NCc1ccccc1	30	21.9	32.8	35.2	29.9	30.7	32.5	30.7	29.4	–	–	–	–	–
O=C(NC(CO)CO)c1ccc2cc(C(=O)N3CC(CCl)c4ccc([N+](=O)[O-])cc43)[nH]c2c1 (centres undefined)	> 100	> 100	> 100	> 100	> 100	–	> 100	> 100	> 100	–	–	–	–	–
CC(C)CC(NC(=O)C(N)CCC(=O)OCc1ccccc1)C(=O)NC(COCc1ccccc1)C(=O)NC(Cc1ccccc1)C(=O)ON1C(=O)CCC1=O (centres undefined) (H-E(OBn)LS(Bn)F-OSu; configuration not given here)	82.1	33.1	–	–	71.8	47.8	68.6	> 100	95.1	–	–	–	–	–
CCc1cc2c(oc3c4ccccc4ccc23)c(=O)[nH]1	> 10	> 10	> 10	> 10	> 10	> 10	–	–	> 10	–	–	–	–	–
CC(CC(C)(C)[N+](C)(C)C)[N+](C)(C)C (centres undefined)	> 100	> 100	> 100	> 100	> 100	> 100	> 100	> 100	> 100	–	–	–	–	–
C/C(=N\n1c(Cc2ccccc2)n[nH]c1=O)c1ccc([N+](=O)[O-])cc1	–	> 100	> 100	> 100	> 100	> 100	> 100	> 100	> 100	–	–	–	–	–
CC(=O)C(C(=O)C(C)(C)C)C(=O)C(C)(C)C	> 100	> 100	> 100	–	> 100	> 100	> 100	> 100	> 100	–	–	–	–	–
Cc1nc2sccn2c1C(=O)OCCOCCOCCOCCOC(=O)c1c(C)nc2sccn12	–	> 100	34	> 100	> 100	> 100	> 100	> 100	> 100	–	> 100	–	–	–
COc1cc(C2C3=C(N=C4SC(C(C)=O)=C(C)N42)c2ccccc2CC3)cc(OC)c1OC (centres undefined)	> 100	> 100	81.4	> 100	–	–	> 100	> 100	> 100	–	> 100	–	–	–
CC12CCC(C1)C(C)(C)C2OC(=O)c1ccccc1C(=O)O (centres undefined)	–	> 100	> 100	> 100	> 100	> 100	> 100	> 100	> 100	–	> 100	–	–	–
C1=C[C@]2(CCC13OCCO3)COc1ccccc12	> 100	> 100	38.4	81.2	> 100	–	> 100	> 100	> 100	–	> 100	–	–	–
O=[N+]([O-])c1ccc(Cl)cc1N/N=C/c1cccs1	> 100	> 100	> 100	> 100	> 100	> 100	> 100	> 100	> 100	–	–	–	–	–
c1ccc(-c2nc3ccccc3n3nnnc23)cc1	> 100	> 100	> 100	> 100	> 100	–	> 100	> 100	> 100	–	> 100	–	–	–
c1ccc2nn(C3CCCCO3)nc2c1 (centres undefined)	> 100	> 100	–	> 100	> 100	> 100	–	> 100	> 100	–	–	–	–	–
